The results in this text go back to ChEMBL document CHEMBL3526130, “An evaluation of using rat-derived single-dose neuropharmacokinetic parameters to project accurately large animal unbound brain drug concentrations” (Drug Metab Dispos, 2012).

Series [1] in a line: AUC(0 to 7 hrs) in Sprague-Dawley rat plasma at 0.2 mg/kg, sc by LC-MS/MS analysis. The series is classed as ADME, organism-based. Set-up: time < 7 hr, dose 0.2 mg/kg, route subcutaneous.
The nature of series [2]: AUC(0 to infinity) in Sprague-Dawley rat cerebrospinal fluid at 0.2 mg/kg, sc by LC-MS/MS analysis. Set-up: time infinity, dose 0.2 mg/kg, route subcutaneous. The format is ADME, organism-based.
Series [3] in a line: AUC(0 to 7 hrs) in Sprague-Dawley rat cerebrospinal fluid at 0.2 mg/kg, sc by LC-MS/MS analysis. The format is ADME, organism-based. Set-up: time < 7 hr, dose 0.2 mg/kg, route subcutaneous.
Series [4] in a line: AUC(0 to 7 hrs) in Sprague-Dawley rat brain at 0.2 mg/kg, sc by LC-MS/MS analysis. The series is classed as ADME, organism-based. Set-up: time < 7 hr, dose 0.2 mg/kg, route subcutaneous.
Series [5] is described as follows: AUC(0 to infinity) in Sprague-Dawley rat brain at 0.2 mg/kg, sc by LC-MS/MS analysis. The series is classed as ADME, organism-based. Set-up: time infinity, dose 0.2 mg/kg, route subcutaneous.
A short description of series [6]: AUC(0 to infinity) in Sprague-Dawley rat plasma at 0.2 mg/kg, sc by LC-MS/MS analysis. The series is classed as ADME, organism-based. Set-up: dose 0.2 mg/kg, route subcutaneous, time infinity.
The nature of series [7]: AUC(0 to infinity) in Sprague-Dawley rat plasma at 3 mg/kg, sc by LC-MS/MS analysis. The format is ADME, organism-based. Set-up: time infinity, dose 3 mg/kg, route subcutaneous.
Series [8] is described as follows: AUC(0 to 7 hrs) in Sprague-Dawley rat brain at 3 mg/kg, sc by LC-MS/MS analysis. Set-up: time < 7 hr, dose 3 mg/kg, route subcutaneous. The series is classed as ADME, organism-based.
The nature of series [9]: Ratio of drug level in brain to plasma in Sprague-Dawley rat at 3 mg/kg, sc by LC-MS/MS analysis. The format is ADME, organism-based. Set-up: dose 3 mg/kg, route subcutaneous. Particulars: read-out: BPR.
Series [10] in a line: Ratio of unbound drug level in brain to plasma in Sprague-Dawley rat at 3 mg/kg, sc by LC-MS/MS analysis. The series is classed as ADME, organism-based. Set-up: dose 3 mg/kg, route subcutaneous.
Series [11] is described as follows: Ratio of unbound brain concentration to drug level in cerebrospinal fluid in Sprague-Dawley rat at 3 mg/kg, sc by LC-MS/MS analysis. The following applies: in vivo. The format is ADME, organism-based. Set-up: dose 3 mg/kg, route subcutaneous.
Series [12] in a line: AUC(0 to 7 hrs) in Sprague-Dawley rat plasma at 3 mg/kg, sc by LC-MS/MS analysis. The series is classed as ADME, organism-based. Set-up: time < 7 hr, dose 3 mg/kg, route subcutaneous.
Series [13] concerns Nucleic Acid. Nature of the series: Ratio of drug level in cerebrospinal fluid to unbound plasma concentration in Sprague-Dawley rat at 3 mg/kg, sc by LC-MS/MS analysis. Set-up: dose 3 mg/kg, route subcutaneous. The series is classed as ADME, organism-based. The following applies: in vivo.
Series [14] is described as follows: AUC(0 to 7 hrs) in Sprague-Dawley rat cerebrospinal fluid at 3 mg/kg, sc by LC-MS/MS analysis. Set-up: time < 7 hr, dose 3 mg/kg, route subcutaneous. The series is classed as ADME, organism-based.
The nature of series [15]: AUC(0 to infinity) in Sprague-Dawley rat brain at 3 mg/kg, sc by LC-MS/MS analysis. The format is ADME, organism-based. Set-up: dose 3 mg/kg, route subcutaneous, time infinity.
The nature of series [16]: AUC(0 to infinity) in Sprague-Dawley rat cerebrospinal fluid at 3 mg/kg, sc by LC-MS/MS analysis. Set-up: dose 3 mg/kg, route subcutaneous, time infinity. The format is ADME, organism-based.
Series [17] is described as follows: Unbound fraction in Beagle dog plasma at 0.5 mg/kg, po by LC-MS/MS analysis. The series is classed as ADME, organism-based, Canis lupus familiaris. Set-up: dose 0.5 mg/kg, route oral.
Series [18] is described as follows: AUC(0 to infinity) in Sprague-Dawley rat plasma at 1 mg/kg, sc by LC-MS/MS analysis. The series is classed as ADME, organism-based. Set-up: time infinity, dose 1 mg/kg, route subcutaneous.
Series [19] in a line: Ratio of drug level in brain to plasma in cynomolgus monkey at 0.1 mg/kg, sc by LC-MS/MS analysis. The series is classed as ADME, organism-based, Macaca fascicularis. Set-up: dose 0.1 mg/kg, route subcutaneous. Particulars: brain and plasma, read-out: BPR.
Series [20] concerns Nucleic Acid. Put plainly: Ratio of drug level in cerebrospinal fluid to unbound plasma concentration in Beagle dog at 0.5 mg/kg, po by LC-MS/MS analysis. The following applies: in vivo. The format is ADME, organism-based, Canis lupus familiaris. Set-up: dose 0.5 mg/kg, route oral.
Series [21] is described as follows: AUC(0 to infinity) in Sprague-Dawley rat brain at 1 mg/kg, sc by LC-MS/MS analysis. The series is classed as ADME, organism-based. Set-up: time infinity, dose 1 mg/kg, route subcutaneous.
Series [22] can be described thus: Ratio of unbound drug level in brain to plasma in Sprague-Dawley rat at 1 mg/kg, sc by LC-MS/MS analysis. The format is ADME, organism-based. Set-up: dose 1 mg/kg, route subcutaneous.
Series [23] deals with Nucleic Acid. Put plainly: Ratio of drug level in cerebrospinal fluid to unbound plasma concentration in Sprague-Dawley rat at 1 mg/kg, sc by LC-MS/MS analysis. The series is classed as ADME, organism-based. Set-up: dose 1 mg/kg, route subcutaneous. Particulars: in vivo.
The nature of series [24]: AUC(0 to 2 hrs) in Sprague-Dawley rat plasma at 1 mg/kg, sc by LC-MS/MS analysis. The series is classed as ADME, organism-based. Set-up: time < 2 hr, dose 1 mg/kg, route subcutaneous.
A short description of series [25]: AUC(0 to 2 hrs) in Sprague-Dawley rat brain at 1 mg/kg, sc by LC-MS/MS analysis. The format is ADME, organism-based. Set-up: time < 2 hr, dose 1 mg/kg, route subcutaneous.
Series [26] is described as follows: Ratio of unbound brain concentration to drug level in cerebrospinal fluid in Beagle dog at 0.5 mg/kg, po by LC-MS/MS analysis. Particulars: in vivo. Set-up: dose 0.5 mg/kg, route oral. The format is ADME, organism-based, Canis lupus familiaris.
A short description of series [27]: Unbound fraction in cynomolgus monkey plasma at 0.1 mg/kg, sc by LC-MS/MS analysis. The format is ADME, organism-based, Macaca fascicularis. Set-up: dose 0.1 mg/kg, route subcutaneous.
The test system of series [28] is Nucleic Acid. Nature of the series: Ratio of drug level in cerebrospinal fluid to unbound plasma concentration in cynomolgus monkey at 0.1 mg/kg, sc by LC-MS/MS analysis. The series is classed as ADME, organism-based, Macaca fascicularis. Set-up: dose 0.1 mg/kg, route subcutaneous. Particulars: in vivo.
The nature of series [29]: Ratio of drug level in brain to plasma in Sprague-Dawley rat at 1 mg/kg, sc by LC-MS/MS analysis. Set-up: dose 1 mg/kg, route subcutaneous. Particulars: read-out: BPR. The format is ADME, organism-based.
Series [30] can be described thus: Ratio of unbound drug level in brain to plasma in Beagle dog at 0.5 mg/kg, po by LC-MS/MS analysis. The format is ADME, organism-based, Canis lupus familiaris. Set-up: dose 0.5 mg/kg, route oral. The following applies: brain and plasma.
The nature of series [31]: Ratio of unbound drug level in brain to plasma in cynomolgus monkey at 0.1 mg/kg, sc by LC-MS/MS analysis. The format is ADME, organism-based, Macaca fascicularis. Set-up: dose 0.1 mg/kg, route subcutaneous. The following applies: brain and plasma.
The nature of series [32]: AUC(0 to 2 hrs) in Sprague-Dawley rat cerebrospinal fluid at 1 mg/kg, sc by LC-MS/MS analysis. The series is classed as ADME, organism-based. Set-up: time < 2 hr, dose 1 mg/kg, route subcutaneous.
Series [33] in a line: Unbound fraction in cynomolgus monkey brain at 0.1 mg/kg, sc by LC-MS/MS analysis. The series is classed as ADME, organism-based, Macaca fascicularis. Set-up: dose 0.1 mg/kg, route subcutaneous.
Series [34] in a line: AUC(0 to infinity) in Sprague-Dawley rat cerebrospinal fluid at 1 mg/kg, sc by LC-MS/MS analysis. The series is classed as ADME, organism-based. Set-up: time infinity, dose 1 mg/kg, route subcutaneous.
The nature of series [35]: Ratio of unbound brain concentration to drug level in cerebrospinal fluid in Sprague-Dawley rat at 1 mg/kg, sc by LC-MS/MS analysis. The format is ADME, organism-based. Set-up: dose 1 mg/kg, route subcutaneous. The following applies: in vivo.
Series [36] in a line: Unbound fraction in Beagle dog brain at 0.5 mg/kg, po by LC-MS/MS analysis. The format is ADME, organism-based, Canis lupus familiaris. Set-up: dose 0.5 mg/kg, route oral.
The nature of series [37]: Ratio of unbound brain concentration to drug level in cerebrospinal fluid in cynomolgus monkey at 0.1 mg/kg, sc by LC-MS/MS analysis. The format is ADME, organism-based, Macaca fascicularis. Particulars: in vivo. Set-up: dose 0.1 mg/kg, route subcutaneous.

Broadly, the AUC(0-t) is the area under the concentration-time curve up to a stated or last time point. Broadly, the AUC(0-inf) is the area under the concentration-time curve extrapolated to infinity. In general, fraction unbound refers to the share of the substance not bound to proteins or other matrix.

As for `CCCC(C)C1(CC)C(=O)NC(=S)NC1=O` (configuration not stated) [THIOPENTAL], the AUC(0-t) at 7 h in series [1] amounted to 216 ng·h/mL; in [3], 16.4 ng·h/mL; in series [4], 209 ng·h/mL. Besides, the AUC(0-inf) in [2] was found to be 16.6 ng·h/mL; in series [5] it was 215 ng·h/mL; in [6], 244 ng·h/mL.

As for `NC(=O)N1c2ccccc2C=Cc2ccccc21` [CARBAMAZEPINE], the area under the curve AUC(0-inf) in series [7] was 2280 ng·h/mL; in series [15] it was 2550 ng·h/mL; in [16] it was 458 ng·h/mL. The AUC(0-t) at 7 h was determined as 2540 ng·h/mL in [8], 2270 ng·h/mL in [12] and 456 ng·h/mL in [14]. In [9], the Kp is 1.12. The Kp uu in series [10] stood at 0.45. The Ratio was found to be 0.5 in [11] and 0.9 in series [13].

`CC(C)S(=O)(=O)N[C@H]1CCOC[C@@H]1c1ccc(-c2ccc(C#N)s2)cc1`: the free fraction (fraction unbound) was determined as 0.0685 in [17], 0.0876 in [27], 0.0228 in series [33] and 0.026 in series [36]. Also, the AUC(0-inf) was 131 ng·h/mL in [18], 150 ng·h/mL in series [21] and 5.4 ng·h/mL in series [34]. Further, the results for the Kp in [19] and in series [29] were 2.82 and 1.07, respectively. Besides, the Ratio in series [20] turned out to be 0.43; in series [23] it was 0.6; in [26], 1.19; in series [28], 0.78; in series [35] it was 0.74; in series [37], 0.94. The figures for the Kp uu in series [22], in series [30] and in series [31] were 0.44, 0.51 and 0.73, respectively. Also, the AUC(0-t) at 2 h came to 122 ng·h/mL in series [24], 131 ng·h/mL in series [25] and 3.46 ng·h/mL in series [32].
